Laboratory results taken from US20060073572A1, “Cytokine structurally related to IL-17” (The Johns Hopkins University, priority 2001, published 2006).
Entries after “also recorded” stand apart in the source; their conditions may differ.

Assays:
Format in all cases: cell-based, human
IL-6 [1] = test: IL-6 expression in PBECs (ELISA, RT-PCR)
Procedure: (§1) FIG. 5. Analysis of IL-6 (FIG. 5A) and IL-8 (FIG. 5B) expression in primary bronchial epithelial cells (PBECs) and human umbilical vein endothelial cells (HUVECs) stimulated by ML-1. The IL-6 and IL-8 protein release in the supernatant was determined by ELISA as described in Example 8. The results were expressed as mean+SD (n=6). *p<0.05 was considered significant vs control.
(§2) FIG. 7A-7D. Effect of PD98059 on IL-6 (FIG. 7A) and IL-8 (FIG. 7B) protein production in PBECs and HUVECs. The cells were preincubated with varying concentrations of PD98059, SB202190, or DMSO vehicle control for 1 hour, followed by stimulation with ML-1 (100 ng/ml) for 24 hours. The results are expressed as the mean+SD (n=6). *P<0.05 when compared to cultures without the addition of PD98059. FIGS. 7C and 7D. Semi-quantitative analysis of gene expression for IL-6 (FIG. 7C) and IL-8 (FIG. 7D) by RT-PCR. The cells were preincubated as described above and treated with ML-1 for 4 hours. RT-PCR was performed as described in Example 8. The results shown are representative of three separate experiments.
(§3) Primary bronchial epithelial cells (PBECs) were purchased from Clonetics (San Diego, Calif.) and cultured in bronchial epithelial basal medium (Clonetics) containing 0.5 ng/ml human recombinant epidermal growth factor (EGF), 52 mg/ml bovine pituitary extract, 0.1 mg/ml retinoic acid, 0.5 mg/ml hydrocortisone, 5 mg/ml insulin, 10 mg/ml transferrin, 0.5 mg/ml epinephrine, 6.5 ng/ml triiodothyronine, […] gentamicin, and 50 pg/ml amphotericin-B (Clonetics). […]
(§4) The amplification reaction was performed for 23 cycles with denaturation at 94° C. for 45 seconds, annealing at 56° C. for 45 seconds, and extension at 72° C. for 45 seconds. PCR products were detected by ethidium bromide staining and normalized by the intensity of an amplified housekeeping gene, G3PDH (see above). […] IL-6 and IL-8 protein levels in the collected supernatants were determined with a commercially available ELISA kit (Biosource, Camarillo, Calif.) according to the manufacturer's instructions.

IL-8 [2] = test: IL-8 expression in PBECs (ELISA, RT-PCR)
Procedure: as §1, §2, §3, §4

IL-6 [3] = test: IL-6 expression in HUVECs (ELISA, RT-PCR)
Procedure: as §1, §2
(§5) Human umbilical vein endothelial cells (HUVECs) were obtained from Clonetics and cultured in endothelial cell growth media (EGM; Clonetics) containing 12 μg/ml bovine brain extract, 10 ng/ml EGF, 1 μg/ml hydrocortisone, 50 μg/ml gentimicin, 50 ng/ml amphotericin B, and 5% FBS amphotericin-B (Clonetics).
(§6) PBECs and HUVECs were treated with ML-1 100 ng/ml of ML-1 for various time points. Total RNA was extracted using RNeasy (Qiagen) from 1×10^6 cells 4 hours after stimulation or exchange of media. […]
as §4

IL-8 [4] = test: IL-8 expression in HUVECs (ELISA, RT-PCR)
Procedure: as §1, §2, §5, §6, §4

ERK1/2 [5] = test: Western blotting of ERK1/2 phosphorylation in PBECs; details: pre-incubation with 10 μM for 1 hour, then ML-1 for 20 minutes
Procedure: (§7) FIGS. 6A-6D. Kinetic activation of ERK1/2 by ML-1 in PBECs (FIG. 6A) and HUVECs (FIG. 6B). The cells were incubated with or without ML-1 (100 ng/ml) for different time points as indicated. Western blotting analysis was performed by using antibodies against different MAP kinases as described in Example 8. FIGS. 6C and 6D. Effect of PD98059 on ML-1-induced phosphorylation of ERK1/2 in PBECs (FIG. 6C) and HUVECs (FIG. 6D). The cells were preincubated with PD98059 ([…]) or DMSO vehicle control for 1 hour, followed by stimulation of PBECs and HUVECs with medium or ML-1 for 20 minutes or 10 minutes, respectively. The results shown are representative of three separate experiments.
(§8) For analysis of activation of MAP kinases, PBECs were treated with IL-17 (100 ng/ml) for various time periods, with or without the MEK 1/2 inhibitor PD98059 ([…]; Calbiochem, La Jolla, Calif.) (15), the p38 inhibitor SB202190 (0.5-10 μM; ref. 16), or a vehicle control, DMSO (Me2SO) for 1 hour. […] Following the treatment, the cells were washed with ice-cold PBS. Cell pellets were immediately lysed in cold lysis buffer [20 mM Tris (pH 7.4), 4 mM EDTA, 2 mM EGTA, 1 mM PMSF, […] aprotinin, 200 mg/ml leupeptin, 50 mM NaF, 5 mM NaRP2O7, 1 mM Na3VO4, and 1% Nonidet P40; all purchased from Sigma]. Extracts (1×10^6 cell equivalents/lane) were suspended with an equal volume of 2× loading buffer [0.1 M Tris-HCl (pH 6.8)], 4% SDS, 0.005% bromophenol blue, and 20% glycerol) containing 2-ME (0.7 M) and subjected to 4-20% Tris-glycine gel electrophoresis (NOVEX, San Diego, Calif.). Gels were then transferred to PVDF membranes (BIO-RAD, Hercules, Calif.) with a Trans Blot apparatus (NOVEX). The membranes were immersed overnight in This-buffered saline/Tween 20 containing 5% nonfat dry skim milk (Carnation, Los Angeles, Calif.).
(§9) Immunoreactive proteins were detected using antibodies against various kinases and phosphorylated kinases. […] Western blotting detection reagents (Amersham) and Hyper ECL luminescence detection film (Amersham) were used. […]

ERK1/2 [6] = test: Western blotting of ERK1/2 phosphorylation in HUVECs; details: pre-incubation with 10 μM for 1 hour, then ML-1 for 10 minutes
Procedure: as §7, §8, §9

ICAM-1 = ICAM-1 surface protein expression on NHBE cells by flow cytometry; details: 100 ng/ml, 48 hours, mean±SD (n=4)
Procedure: FIG. 4. Effect of ML-1 on ICAM-1 surface expression on NHBE cells by Flow Cytometry. NHBE cells were treated for 48 hours under following conditions: medium only, rIL-17 (100 ng/ml), purified His-tagged protein (Positope, 100 ng/ml), or ML-1 (100 ng/ml) as indicated. The mean fluorescence intensity of ICAM-1 surface expression was measured. The experiment was conducted four times. The results shown are from a representative experiment. * p<0.01.
To determine whether ML-1 is able to induce ICAM-1 expression on NHBE cells, surface expression of ICAM-1 on NHBE cells was measured and the effects of ML-1 and IL-17 were compared.
NHBE cells were treated with IL-17 (100 ng/ml), ML-1 (100 ng/ml), or a control His protein (Positope, 100 ng/ml). The cells were harvested following treatment with 0.1% trypsin-0.02% EDTA at 37° C. for 6 minutes and suspended in PBS containing 2% BSA and 0.02 % sodium azide. One million cells were incubated with a mouse anti-human ICAM-1 monoclonal antibody (R&D Systems, Minneapolis, Minn.) on ice for 30 minutes. […] After three additional washes in PBS, the cells were resuspended in PBS and immediately analyzed with a FACScan flow cytometer (Becton Dickinson, Mountain View, Calif.). […] Indices are expressed as mean±SD (n=4).

IL-8 [7] = test: IL-8 expression in NHBE cells (RT-PCR and ELISA); details: 100 ng/ml
Text: FIGS. 3A-3C. FIG. 3A, Expression of ML-1 protein in COS-7 cells. COS-7 cells were transfected with a gene construct containing full-length ML-1 sequence and a tag sequence encoding poly (His) peptide. ML-1-His fusion proteins were purified from supernatants of the transfected cells using a His affinity column, run on an 8-16% SDS-polyacrylamide gel under reducing conditions, and analyzed by Western Blot using anti-His monoclonal antibody. Lane 1 represents a mock-transfected sample. Lane 2 represents an ML-1-transfected sample. The location of a 19.5 kd marker is indicated. FIG. 3B, Effect of ML-1 on IL-8 gene expression. Human primary bronchial epithelial cells (NHBE cells) were treated with different stimuli. The cells were harvested 4 hours after stimulation, and total RNA was extracted and subjected to RT-PCR using IL-8 and G3PDH primers. Lane 1, medium only; lane 2, cells treated with rIL-17 (100 ng/ml); lane 3, cells treated with purified His-tagged protein (Positope, 100 ng/ml); lane 4, cells treated with ML-1 (100 ng/ml). FIG. 3C, Effect of ML-1 on IL-8 protein production. NHBE cells were treated with the same stimuli used in FIG. 3B, and the supernatants were harvested 48 hours after stimulation.
Primary human bronchial epithelial (NHBE) cells were purchased from Clonetics (San Diego, Calif.) and cultured according to the manufacturer's instructions. The cells were treated with IL-17 (100 ng/ml), ML-1 (100 ng/ml), or a control His-tagged protein (Positope, 100 ng/ml; Invitrogen, Carlsbad, Calif.). The affinity-purified control His protein was dissolved in the same buffer as ML-1. Total RNA was extracted using Rneasy (Qiagen, Chatsworth, Calif.) from 1×10^6 cells 4 hours after stimulation or exchange of media. The protocol for cDNA synthesis was that described above. For PCR, the sequences of PCR primers were based on the human IL-8 cDNA sequence. The sequences of PCR primers for IL-8 were: forward, 5′-TCTGCAGCTCTGTGTGAAG-3′ (SEQ ID NO:14) and reverse, 5′-TAATTTCTGTGTTGGCGCA-3′ (SEQ ID NO:15). The amplification reaction was performed for 23 cycles with denaturation at 94° C. for 45 seconds, annealing at 56° C. for 45 seconds, and extension at 72° C. for 45 seconds PCR products were detected by ethidium bromide staining. The expected size for IL-8 was 154 basepairs. IL-8 protein levels in the collected supernatants were determined with a commercially available ELISA kit (Biosource, Camarillo, Calif.) according to the manufacturer's instructions.

[8] = 1 hour preincubation, varying concentrations, ML-1 100 ng/ml 24 hours
[9] = preincubation, ML-1 for 4 hours, semi-quantitative RT-PCR

In the case of `COc1cccc(-c2cc(=O)c3ccccc3o2)c1N` [PD98059], the “effect on ML-1-induced IL-6 protein production” value (IL-6 [1]; [8]) is reported as “inhibited; also recorded: not completely inhibited”, the “effect on ML-1-induced IL-6 gene expression” value (IL-6 [1]; [9]) is reported as “Decreased levels” and the “effect on ML-1-induced IL-8 protein production” value (IL-8 [2]; [8]) is reported as “inhibited; also recorded: not completely inhibited”. For the same compound, the “effect on ML-1-induced IL-8 gene expression” value (IL-8 [2]; [9]) was “Decreased levels”, the “effect on ML-1-induced IL-6 protein production” value (IL-6 [3]; [8]) was “inhibited; also recorded: not completely inhibited” and the “effect on ML-1-induced IL-6 gene expression” value (IL-6 [3]; [9]) was “Decreased levels”. For the same compound, the “effect on ML-1-induced IL-8 protein production” value (IL-8 [4]; [8]) was “inhibited; also recorded: not completely inhibited”, the “effect on ML-1-induced IL-8 gene expression” value (IL-8 [4]; [9]) was “Decreased levels” and the “effect on ML-1-induced activation of ERK1/2” value (ERK1/2 [5]) was “diminished”. For the same compound, the “effect on ML-1-induced activation of ERK1/2” value (ERK1/2 [6]) was “diminished”.
With “IL-17: human IL-17, T-cell derived homodimeric cytokine, used as comparator” the “ICAM-1 surface expression, mean fluorescence intensity (MFI)” value (ICAM-1) was 10.07±1.22, the IL-8 protein expression (IL-8 [7]; ELISA of supernatants, 48 hours) was “enhanced” and the IL-8 transcript expression (IL-8 [7]; RT-PCR) was “enhanced”.
